Legend:
[1] = system: gram-positive bacteria; conditions: cited from earlier work
[2] = target: T1, Pancreatic CCK Receptor (Rattus norvegicus, UniProt P30551); assay: Pancreatic Cholecystokinin Receptor Binding Assay (125I-CCK-8); conditions: added as protease inhibitors
T1 construct: Pancreatic receptor membranes were prepared by homogenzing a gram of fresh rat pancreas tissue; from tissue; host or cells: rat pancreas membranes
T1 sequence (P30551 1-444): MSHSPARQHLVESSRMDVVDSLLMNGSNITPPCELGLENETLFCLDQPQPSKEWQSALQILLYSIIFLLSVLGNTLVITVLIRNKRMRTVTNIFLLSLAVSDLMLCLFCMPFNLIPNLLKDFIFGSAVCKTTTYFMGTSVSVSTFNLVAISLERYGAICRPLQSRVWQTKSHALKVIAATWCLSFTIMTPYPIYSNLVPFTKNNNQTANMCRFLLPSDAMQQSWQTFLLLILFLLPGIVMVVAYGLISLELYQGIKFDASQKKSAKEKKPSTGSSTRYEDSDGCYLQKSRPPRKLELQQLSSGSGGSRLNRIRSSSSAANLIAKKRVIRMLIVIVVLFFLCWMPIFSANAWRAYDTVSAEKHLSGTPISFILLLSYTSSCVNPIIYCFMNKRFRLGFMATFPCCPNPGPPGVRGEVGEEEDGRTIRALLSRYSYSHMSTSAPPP
Procedure: Radiolabeled CCK-8 was purchased from New England Nullear as ^125 I-CCK-8. Receptor binding was performed according to Innis and Snyder Proc. Natl. Acad. Sci., 77, 6917 (1980), with the minor modification of adding the additional protease inhibitors, phenylmethane sulfonyl fluoride (PMSF) and o-phenanthroline, which have no effect on the ^125 I-CCK receptor binding assay. All assays were performed in triplicate. Pancreatic receptor membranes were prepared by homogenzing a gram of fresh rat pancreas tissue in 30 ml TRIS-HCl (50 mM), pH 7.7 using a Brinkman polytron PT10 (Brinkman). The homogenate was washed twice and collected by centrifugation at 48,000×g at 4° C. for 10 minutes. The membranes were resuspended in assay buffer consisting of 5 mM dithiothieitol, 0.1 mM bacitiacin, 5 mM MgCl2 ·H2 O, 0.2% heat denatured BSA, 1.2 mM PMSF and 0.5 mM O-phenanthroline at a concentration of 100 ml per gram of pancreas. […] The reaction mixtures were mixed briefly and placed in a 37° C. water bath with gentle shaking for 30 minutes. […] The filters were washed with 3×4 ml of the same buffer and the radioactivity associated with the filters was counted in a Beckman Gamma 5500 counter. […] The dried samples were then brought up in methanol/H2 O (1:1) and ready for assay.

[3] = vs CCK-33; cited from earlier work
[4] = system: gastric acid secretion; conditions: cited from earlier work

## CC1=C\[C@@H](O)CC(=O)Cc2nc(co2)C(=O)N2CCC=C2C(=O)O[C@H](C(C)C)[C@H](C)/C=C/C(=O)NC\C=C\1 [Virginiamycin M1]
[1]
  antibacterial specificity: generally specific for gram-positive bacteria

## c1cnc2c(c1)ccc1cccnc12 [o-phenanthroline]
[2]
  effect on the 125I-CCK receptor binding assay: no effect

## O=S(=O)(F)Cc1ccccc1 [phenylmethane sulfonyl fluoride (PMSF), phenylmethane sulfonyl fluoride]
[2]
  effect on the 125I-CCK receptor binding assay: no effect

## C-terminal octapeptide: C-terminal octapeptide of CCK
[3]
  efficacy relative to CCK-33: same efficacy

## Gastrin-17
[4]; vs Gastrin-13
  potency for stimulating gastric acid secretion relative to Gastrin-13: 2.5 times more potent
[4]; vs Gastrin-34
  potency for stimulating gastric acid secretion relative to Gastrin-34: 5 times more potent
